Structures are written as SMILES.

The assay has as its system male C3H mice irradiated with X-rays. Put plainly: 30-day survival of mice after X-ray irradiation (radiation protection). In kind it is in vivo. As for the experimental part: Seven to thirteen male C3H mice aged 10 weeks (body weight: 25-28 g) per group were irradiated with X-rays (7.5-8.5 Gy) and their survival rate was determined 30 days after the irradiation. To each of drug-treated groups was intraperitoneally or subcutaneously administered 0.5% methylcellulose solution (0.3 ml) containing d-γ-tocopherol-N,N-dimethylglycine ester hydrochloride in an amount of 10-300 mg/Kg, before or after the irradiation. To a control group was intraperitoneally administered 0.5% methylcellulose solution in a volume of 0.3 ml per mouse.
Eight to eleven male C3H mice aged 10 weeks (body weight: 25-28 g) per group were irradiated with X-rays (7.5 Gy) and their survival rate was measured 30 days after the irradiation. To drug-treated groups was intraperitoneally administered 0.5% methylcellulose solution (0.3 ml) containing d-α-tocopherol-N,N-dimethylglycine ester hydrochloride, d-γ- or d-α-tocotrienol-N,N-dimethylglycine ester hydrochloride, d-γ- or dl-α-tocopherol phosphate disodium salt, or d-γ-tocopherol-N-methyl-L-proline ester hydrochloride, respectively, in an amount of 100 mg/Kg, immediately after the irradiation. To a control group was intraperitoneally administered 0.5% methylcellulose solution in a volume of 0.3 ml per mouse.

Where [1] appears, read: 100 mg/kg i.p., 7.5 Gy X-rays, administered immediately after irradiation, C3H mice (Table 2).

On to `Cc1c(OP(=O)([O-])[O-])cc2c(c1C)OC(C)(CCCC(C)CCCC(C)CCCC(C)C)CC2.[Na+].[Na+]` (stereo not drawn) [d-γ-Tocopherol phosphate disodium salt], for which the “Survival rate after 30 days (%)” value under setting [1] came out at 70%.
The same measure, in the same setting: the result for `CC(C)=CCCC(C)=CCCC(C)=CCCC1(C)CCc2cc(OC(=O)CN(C)C)c(C)c(C)c2O1.Cl` (stereo not drawn) [d-γ-Tocotrienol-N,N-dimethylglycine ester hydrochloride] reads 85%.
Turning to `Cc1c(OC(=O)CN(C)C)cc2c(c1C)OC(C)(CCCC(C)CCCC(C)CCCC(C)C)CC2.Cl` (stereo not drawn) [d-γ-tocopherol-N,N-dimethylglycine ester hydrochloride], the “Survival rate after 30 days (%)” value is 10% (10 mg/kg i.p., 7.5 Gy X-rays, administered immediately after irradiation, C3H mice); 60% (20 mg/kg i.p., 7.5 Gy X-rays, administered immediately after irradiation, C3H mice); 85% (50 mg/kg i.p., 7.5 Gy X-rays, administered immediately after irradiation, C3H mice); 85% (100 mg/kg S.C. administration, 7.5 Gy X-rays, administered immediately after irradiation, C3H mice); 60% (100 mg/kg i.p., 7.5 Gy X-rays, administered 30 min. before irradiation, C3H mice); 88% (100 mg/kg i.p., 7.5 Gy X-rays, administered 1 hr. after irradiation, C3H mice). The “Survival rate after 30 days (%)” value is, setting by setting: (100 mg/kg i.p., 7.5 Gy X-rays, administered 10 hrs. after irradiation, C3H mice) 75%; (100 mg/kg i.p., 7.5 Gy X-rays, administered 24 hrs. after irradiation, C3H mice) 40%; (100 mg/kg i.p., 7.5 Gy X-rays, administered immediately after irradiation, C3H mice (Table 1)) 98%; (100 mg/kg i.p., 7.5 Gy X-rays, administered immediately before irradiation, C3H mice) 80%; (100 mg/kg i.p., 8 Gy X-rays, administered immediately after irradiation, C3H mice) 78%; (100 mg/kg i.p., 8.5 Gy X-rays, administered immediately after irradiation, C3H mice) 37%. The “Survival rate after 30 days (%)” value (300 mg/kg i.p., 7.5 Gy X-rays, administered immediately after irradiation, C3H mice) came to 55%.
Take `Cc1c(C)c2c(c(C)c1OP(=O)([O-])[O-])CCC(C)(CCCC(C)CCCC(C)CCCC(C)C)O2.[Na+].[Na+]` (racemic) [dl-α-Tocopherol phosphate disodium salt]: the “Survival rate after 30 days (%)” value under setting [1] is 40%.
Same read-out and setting: the result for `CC(C)=CCCC(C)=CCCC(C)=CCCC1(C)CCc2c(C)c(OC(=O)CN(C)C)c(C)c(C)c2O1.Cl` (stereo not drawn) [d-α-Tocotrienol-N,N-dimethylglycine ester hydrochloride] reads 91%; that for `Cc1c(OC(=O)[C@@H]2CCCN2C)cc2c(c1C)OC(C)(CCCC(C)CCCC(C)CCCC(C)C)CC2.Cl` (stereo partly drawn) [d-γ-tocopherol-L-N-methylproline ester hydrochloride], 90%.
As for `Cc1c(C)c2c(c(C)c1OC(=O)CN(C)C)CCC(C)(CCCC(C)CCCC(C)CCCC(C)C)O2.Cl` (stereo not drawn) [d-α-tocopherol-N,N-dimethylglycine ester hydrochloride], the “Survival rate after 30 days (%)” value under setting [1] amounted to 95%.
